# Assay: Evaluation of stability in liver microsome
# Conditions: mouse liver microsome, 1 μM, 37° C. for 30 minutes
row,Remaining (%),SMILES
1,68,"COCc1ccc(NC(=O)c2c(OCC3CCOC3)n(C3(C)CC3)c3ncnc(N)c23)cc1 (stereo not drawn) [Example 101, 4-amino-N-(4-(methoxymethyl)phenyl)-7-(1-methylcyclopropyl)-6-((tetrahydrofuran-3-yl)methoxy)-7H-pyrrolo[2,3-d]pyrimidine-5-carboxamide]"
2,79,"COCc1ccc(NC(=O)c2c(C#Cc3ccccc3OC)n(C3(C)CC3)c3ncnc(N)c23)cc1 [Example 113, 4-amino-N-(4-(methoxymethyl)phenyl)-6-((2-methoxyphenyl)ethynyl)-7-(1-methylcyclopropyl)-7H-pyrrolo[2,3-d]pyrimidine-5-carboxamide]"
3,55,"CCOc1c(C(=O)Nc2ccc(-c3ccco3)cc2)c2c(N)ncnc2n1C1(C)CC1 [Example 116, 4-amino-6-ethoxy-N-(4-(furan-2-yl)phenyl)-7-(1-methylcyclopropyl)-7H-pyrrolo[2,3-d]pyrimidine-5-carboxamide]"
4,70,"COCc1ccc(NC(=O)c2c(C#Cc3cccs3)n(C3(C)CC3)c3ncnc(N)c23)cc1 [Example 119, 4-amino-N-(4-(methoxymethyl)phenyl)-7-(1-methylcyclopropyl)-6-(thiophen-2-ylethynyl)-7H-pyrrolo[2,3-d]pyrimidine-5-carboxamide]"
5,72,"COCc1ccc(NC(=O)c2c(C#Cc3ccc(Cl)nc3)n(C3(C)CC3)c3ncnc(N)c23)cc1 [Example 120, 4-amino-6-((6-chloropyridin-3-yl)ethynyl)-N-(4-(methoxymethyl)phenyl)-7-(1-methylcyclopropyl)-7H-pyrrolo[2,3-d]pyrimidine-5-carboxamide]"
6,62,"COCc1ccc(NC(=O)c2c(C#Cc3cccc(NCc4ccncc4)c3)n(C3(C)CC3)c3ncnc(N)c23)cc1 [Example 122, 4-amino-N-(4-(methoxymethyl)phenyl)-7-(1-methylcyclopropyl)-6-((3-((pyridin-4-ylmethyl)amino)phenyl)ethynyl)-7H-pyrrolo[2,3-d]pyrimidine-5-carboxamide]"
7,74,"COCc1ccc(NC(=O)c2c(C#CCC3(O)COC3)n(C3(C)CC3)c3ncnc(N)c23)cc1 [Example 125, 4-amino-6-(3-(3-hydroxyoxetan-3-yl)prop-1-yn-1-yl)-N-(4-(methoxymethyl)phenyl)-7-(1-methylcyclopropyl)-7H-pyrrolo[2,3-d]pyrimidine-5-carboxamide]"
8,70,"CCOc1c(C(=O)Nc2ccc(COC)cc2)c2c(N)ncnc2n1C1(C)CC1 [Example 127, 4-amino-6-ethoxy-N-(4-(methoxymethyl)phenyl)-7-(1-methylcyclopropyl)-7H-pyrrolo[2,3-d]pyrimidine-5-carboxamide]"
9,82,"COCc1ccc(NC(=O)c2c(C#Cc3cnc4[nH]ccc4c3)n(C3(C)CC3)c3ncnc(N)c23)cc1 [Example 128, 6-((1H-pyrrolo[2,3-b]pyridin-5-yl)ethynyl)-4-amino-N-(4-(methoxymethyl)phenyl)-7-(1-methylcyclopropyl)-7H-pyrrolo[2,3-d]pyrimidine-5-carboxamide]"
10,84,"COCc1ccc(NC(=O)c2c(C#Cc3cccc(F)c3)n(C3(C)CC3)c3ncnc(N)c23)cc1 [Example 130, 4-amino-6-((3-fluorophenyl)ethynyl)-N-(4-(methoxymethyl)phenyl)-7-(1-methylcyclopropyl)-7H-pyrrolo[2,3-d]pyrimidine-5-carboxamide]"
11,55,"COCc1ccc(NC(=O)c2c(C#CC3(O)CCCC3)n(C3(C)CC3)c3ncnc(N)c23)cc1 [Example 131, 4-amino-6-((1-hydroxycyclopentyl)ethynyl)-N-(4-(methoxymethyl)phenyl)-7-(1-methylcyclopropyl)-7H-pyrrolo[2,3-d]pyrimidine-5-carboxamide]"
12,67,"COCc1ccc(NC(=O)c2c(OCC3CCCO3)n(C3(C)CC3)c3ncnc(N)c23)cc1 (stereo not drawn) [Example 135, 4-amino-N-(4-(methoxymethyl)phenyl)-7-(1-methylcyclopropyl)-6-((tetrahydrofuran-2-yl)methoxy)-7H-pyrrolo[2,3-d]pyrimidine-5-carboxamide]"
13,78,"COCc1ccc(NC(=O)c2c(OCCN3CCCC3=O)n(C3(C)CC3)c3ncnc(N)c23)cc1 [Example 136, 4-amino-N-(4-(methoxymethyl)phenyl)-7-(1-methylcyclopropyl)-6-(2-(2-oxopyrrolidin-1-yl)ethoxy)-7H-pyrrolo[2,3-d]pyrimidine-5-carboxamide]"

# More lines, now with the values behind:
row,SMILES,Remaining (%)
1,"COCc1ccc(NC(=O)c2c(OCC(C)C)n(C3(C)CC3)c3ncnc(N)c23)cc1 [Example 99, 4-amino-6-isobutoxy-N-(4-(methoxymethyl)phenyl)-7-(1-methylcyclopropyl)-7H-pyrrolo[2,3-d]pyrimidine-5-carboxamide]",51
2,"COCc1ccc(NC(=O)c2c(OCC(C)OC)n(C3(C)CC3)c3ncnc(N)c23)cc1 (stereo not drawn) [Example 100, 4-amino-N-(4-(methoxymethyl)phenyl)-6-(2-methoxypropoxy)-7-(1-methylcyclopropyl)-7H-pyrrolo[2,3-d]pyrimidine-5-carboxamide]",76
3,"COCc1ccc(NC(=O)c2c(OCC3CCCCO3)n(C3(C)CC3)c3ncnc(N)c23)cc1 (stereo not drawn) [Example 102, 4-amino-N-(4-(methoxymethyl)phenyl)-7-(1-methylcyclopropyl)-6-((tetrahydro-2H-pyran-2-yl)methoxy)-7H-pyrrolo[2,3-d]pyrimidine-5-carboxamide]",60
4,"COCc1ccc(NC(=O)c2c(C#CCC3(O)CCC3)n(C3(C)CC3)c3ncnc(N)c23)cc1 [Example 103, 4-amino-6-(3-(1-hydroxycyclobutyl)prop-1-yn-1-yl)-N-(4-(methoxymethyl)phenyl)-7-(1-methylcyclopropyl)-7H-pyrrolo[2,3-d]pyrimidine-5-carboxamide]",60
5,"COCc1ccc(NC(=O)c2c(C#CC(O)C3CC3)n(C3(C)CC3)c3ncnc(N)c23)cc1 (stereo not drawn) [Example 104, 4-amino-6-(3-cyclopropyl-3-hydroxyprop-1-yn-1-yl)-N-(4-(methoxymethyl)phenyl)-7-(1-methylcyclopropyl)-7H-pyrrolo[2,3-d]pyrimidine-5-carboxamide]",52
6,"COCc1ccc(NC(=O)c2c(C#CCN3CCCCC3)n(C3(C)CC3)c3ncnc(N)c23)cc1 [Example 105, 4-amino-N-[4-(methoxymethyl)phenyl]-7-(1-methylcyclopropyl)-6-(3-(piperidin-1-yl)prop-1-yn-1-yl)-7H-pyrrolo[2,3-d]pyrimidine-5-carboxamide]",52
7,"COCc1ccc(NC(=O)c2c(/C=C/CO)n(C3(C)CC3)c3ncnc(N)c23)cc1 [Example 109, (E)-4-amino-6-(3-hydroxyprop-1-en-1-yl)-N-(4-(methoxymethyl)phenyl)-7-(1-methylcyclopropyl)-7H-pyrrolo[2,3-d]pyrimidine-5-carboxamide]",68
8,"CCn1nccc1C#Cc1c(C(=O)Nc2ccc(COC)cc2)c2c(N)ncnc2n1C1(C)CC1 [Example 114, 4-amino-6-((1-ethyl-1H-pyrazol-5-yl)ethynyl)-N-(4-(methoxymethyl)phenyl)-7-(1-methylcyclopropyl)-7H-pyrrolo[2,3-d]pyrimidine-5-carboxamide]",55
9,"CCn1cc(C#Cc2c(C(=O)Nc3ccc(COC)cc3)c3c(N)ncnc3n2C2(C)CC2)cn1 [Example 118, 4-amino-6-((1-ethyl-1H-pyrazol-4-yl)ethynyl)-N-(4-(methoxymethyl)phenyl)-7-(1-methylcyclopropyl)-7H-pyrrolo[2,3-d]pyrimidine-5-carboxamide]",73
10,"COCc1ccc(NC(=O)c2c(C#Cc3c[nH]c4ccccc34)n(C3(C)CC3)c3ncnc(N)c23)cc1 [Example 121, 6-((1H-indol-3-yl)ethynyl)-4-amino-N-(4-(methoxymethyl)phenyl)-7-(1-methylcyclopropyl)-7H-pyrrolo[2,3-d]pyrimidine-5-carboxamide]",74
11,"COCc1ccc(NC(=O)c2c(C#Cc3csc(C)n3)n(C3(C)CC3)c3ncnc(N)c23)cc1 [Example 126, 4-amino-N-(4-(methoxymethyl)phenyl)-7-(1-methylcyclopropyl)-6-((2-methylthiazol-4-yl)ethynyl)-7H-pyrrolo[2,3-d]pyrimidine-5-carboxamide]",69
12,"COCc1ccc(NC(=O)c2c(C#Cc3ccn[nH]3)n(C3(C)CC3)c3ncnc(N)c23)cc1 [Example 129, 6-((1H-pyrazol-5-yl)ethynyl)-4-amino-N-(4-(methoxymethyl)phenyl)-7-(1-methylcyclopropyl)-7H-pyrrolo[2,3-d]pyrimidine-5-carboxamide]",54
13,"COCc1ccc(NC(=O)c2c(C#CCN3CCN(C)CC3)n(C3(C)CC3)c3ncnc(N)c23)cc1 [Example 132, 4-amino-N-(4-(methoxymethyl)phenyl)-7-(1-methylcyclopropyl)-6-(3-(4-methylpiperazin-1-yl)prop-1-yn-1-yl)-7H-pyrrolo[2,3-d]pyrimidine-5-carboxamide]",77
14,"COCc1ccc(NC(=O)c2c(SC)n(C3(C)CC3)c3ncnc(N)c23)cc1 [Example 133, 4-amino-N-(4-methoxymethyl)phenyl-7-(1-methylcyclopropyl)-6-(methylthio)-7H-pyrrolo[2,3-d]pyrimidine-5-carboxamide]",70
15,"COCc1ccc(NC(=O)c2c(C#CC(C)(C)N)n(C3(C)CC3)c3ncnc(N)c23)cc1 [Example 134, 4-amino-6-(3-amino-3-methylbut-1-yn-1-yl)-N-(4-(methoxymethyl)phenyl)-7-(1-methylcyclopropyl)-7H-pyrrolo[2,3-d]pyrimidine-5-carboxamide]",79
16,"COCc1ccc(NC(=O)c2c(OCC(C)(C)OC)n(C3(C)CC3)c3ncnc(N)c23)cc1 [Example 137, 4-amino-6-(2-methoxy-2-methylpropoxy)-N-(4-(methoxymethyl)phenyl)-7-(1-methylcyclopropyl)-7H-pyrrolo[2,3-d]pyrimidine-5-carboxamide]",53
17,"COCc1ccc(NC(=O)c2c(OCC3CCCC3)n(C3(C)CC3)c3ncnc(N)c23)cc1 [Example 140, 4-amino-6-(cyclopentylmethoxy)-N-(4-(methoxymethyl)phenyl)-7-(1-methylcyclopropyl)-7H-pyrrolo[2,3-d] pyrimidine-5-carboxamide]",52
